Literature values as cited in patent US20230190776A1, “ENCAPSULATION OF BIOACTIVE INGREDIENTS BY MULTIPLEX EMULSION” (The Board of Regents of the University of Texas System, priority 2021, published 2023).

Conditions: up to 14 weeks of administrations; species not given

Structure (SMILES): O=C1CCC[C@@H]2[C@H]3CCC[N+]4([O-])CCC[C@@H](CN12)[C@@H]34 (stereo partly shown) [Oxymatrine]
- lethal dose: around 300 mg/kg
